Here are results for 69 compounds from PubChem BioAssay AID1981 (Southern Research Specialized Biocontainment Screening …, 2009).

Molecules are shown by their SMILES. Values joined by “and” are separate entries in the source; they are usually repeats but may differ in a detail not shown here. Equal values may be shown once.

The experiment has as its system S. Typhimurium PhoP-promoter GFP reporter counterscreen, fluorescence, 4 h. The experiment is described as follows: S. Typhimurium GFP fluorescence modified counterscreen for PhoP regulon inhibitor project dose response (AID 1981). In general terms: A counterscreen serves to expose hits that act by an unwanted route or on another target.

On to `Clc1cc(Br)ccc1OCCCNCc1ccccc1`, for which the concentration for half-maximal inhibition (IC50) (usually the concentration that gives 50% inhibition) was 83.4 µM.

On to `OCCN1CCN(Cc2cc(Cl)c3cccnc3c2O)CC1`, for which the IC50 was 104 µM.

Consider `O=[N+]([O-])c1ccc(O)c(/C=N/Nc2ccccn2)c1`, for which the IC50 was 12.5 µM.

On to `O=C(N/N=C/c1ccc(Sc2ccccn2)o1)c1cc2ccccc2cc1O`, for which the IC50 was 110 µM.

For `Cc1[nH]n(-c2ccccc2)c(=O)c1C(C[N+](=O)[O-])c1ccc(F)cc1` (centres undefined), the IC50 is 109 µM.

With `Fc1ccccc1CCNCc1ccccc1`, the IC50 is 49.2 µM.

Turning to `COC1C(OC(=O)c2ccc(C)[nH]2)C(O)C(Oc2ccc3c(O)c(NC(=O)c4ccc(O)c(CC=C(C)C)c4)c(=O)oc3c2Cl)OC1(C)C` (centres undefined), the IC50 was 19.3 µM.

Take `CCCCCCCCCn1c2c(c(=N)c3c1CCC3)CCC2`: the IC50 is 84.5 µM.

On to `O=C(N/N=C/c1cccs1)c1cccs1`, for which the IC50 is 81.4 µM.

In the case of `CCn1cc(C(=O)O)c(=O)c2cc(F)c(N3CCN(C)CC3)cc21`, the IC50 was 1.46 µM.

`CCC(C)N1CCC2(CC1)N=c1c(c3c4c5c(C)c(O)c3c(O)c1=NC(=O)C(C)=CC=C[C@H](C)[C@H](O)[C@@H](C)[C@@H](O)[C@@H](C)[C@H](OC(C)=O)[C@H](C)[C@@H](OC)C=CO[C@@](C)(O5)C4=O)N2` (some centres undefined): the IC50 is 3.03 µM.

Take `Nc1nc2ccccc2n1CCOc1ccccc1Cl`: the IC50 was 104 µM.

Consider `C#CCOCCOCCOCCNc1nc(N2CCN(C(=O)CCCCCCCCCCNC(=O)[C@H](CCCN=C(N)N)n3cc(C[C@@H](C)CC)nn3)CC2)nc(N2CCN(C(=O)CCCCCCCCCCNC(=O)[C@@H]([C@H](C)CC)n3cc(CCCCCN)nn3)CC2)n1`, for which the IC50 was 41.4 µM.

For the compound `C[C@H]1O[C@@H](n2cc(F)c(=O)[nH]c2=O)[C@H](O)[C@@H]1O`, the IC50 was 11.8 µM.

Turning to `Cc1cc(C)c2ccc(N)nc2c1O`, the IC50 is 49.9 µM.

As for `C/C(=N\Nc1ncnc2sc(C)c(C)c12)c1ccccn1`, the IC50 was 33.4 µM.

Regarding `Cc1nnc(N/N=C/c2ccccn2)[nH]c1=O`, the IC50 is 21.2 µM.

For the compound `COc1ccc2[nH]c3c(C)c4ccncc4c(C)c3c2c1`, the IC50 is 80.6 µM.

In the case of `CCn1cc(C(=O)O)c(=O)c2cc(F)c(N3CCN(C(=S)NC(=O)c4ccc(OC)cc4)CC3)cc21`, the IC50 was 13.4 µM.

For the compound `CCn1cc(C(=O)O)c(=O)c2cc(F)c(N3CCN(C(=S)NC(=O)c4ccccc4F)CC3)cc21`, the IC50 was 79.4 µM.

As for `CC(C)COc1ccc(Cc2cnc(N)nc2N)cc1`, the IC50 was 127 µM.

`CC1COc2c(N3CCN(C)CC3)c(F)cc3c(=O)c(C(=O)O)cn1c23` (centres undefined): the IC50 was 0.56 µM.

Take `CCn1cc(C(=O)NCCCO)c(=O)c2cc(F)c(N3CCN(C)CC3)cc21`: the IC50 is 46 µM.

In the case of `FC(F)(F)c1ccc2c(c1)N(CCCN1CCN(CCCl)CC1)c1ccccc1S2`, the IC50 is 146 µM.

For `O=C(NC(=S)NNC(=O)c1ccccc1O)c1ccco1`, the IC50 is 41.8 µM.

Regarding `COc1cccc(/C=N/Nc2ncc(C(F)(F)F)cc2Cl)c1O`, the IC50 was 34.7 µM.

`O=C(Nc1ccccc1)Oc1ccc[nH]c1=O`: the half-maximal inhibitory concentration (IC50) was 80.6 µM.

On to `CCOc1cccc(CNc2ccc(O)cc2)c1OCc1ccc(Cl)cc1Cl`, for which the IC50 is 125 µM.

For the compound `Clc1ccc(Cl)c(OCCCCNCc2ccccc2)c1`, the IC50 is 131 µM.

For `c1ccc(-c2nnc(-c3ccccn3)nc2NC2CCCCC2)cc1`, the IC50 is 148 µM.

For `Nc1ccc2c(c1)C(=O)C(=O)c1ccccc1-2`, the IC50 is 10.9 µM.

On to `O=C1C(=O)c2ccccc2-c2ccccc21`, for which the IC50 was 87.3 µM.

`COc1ccc(C(=O)Cn2nc(CNc3ccc(Br)cc3)[n+]3c2CCCCC3)cc1`: the IC50 is 106 µM.

With `O=[N+]([O-])c1cc(CN2CCOCC2)c2cccnc2c1O`, the IC50 was 64.3 µM.

Consider `CCCCCCCNC(=O)C1(CC2CC(c3cccc(Br)c3)=NO2)CCNCC1` (centres undefined), for which the IC50 is 58.7 µM.

Regarding `CN(C)[C@@H]1C(=O)C(C(N)=O)=C(O)[C@@]2(O)C(=O)C3=C(O)c4c(O)cccc4[C@@](C)(O)C3[C@H](O)C12` (some centres undefined), the IC50 was 1.34 µM.

Consider `O=C(O)C1Nc2c(O)cccc2C2C=CCC12` (centres undefined), for which the IC50 was 64.9 µM.

Regarding `Cc1nc(N)c(Cc2ccc(Cl)cc2Cl)c(N)n1`, the IC50 is 86.9 µM.

On to `O=C(N/N=C/c1cc(O)ccc1Br)c1cccnc1`, for which the IC50 is 43.5 µM.

As to `CCn1cc(C(=O)NCCO)c(=O)c2cc(F)c(N3CCN(C)CC3)cc21`, the IC50 is 29.9 µM.

For the compound `CCC(C)(C)c1ccc(OCCCC[n+]2ccccc2)c(C(C)(C)CC)c1`, the IC50 was 63.4 µM.

In the case of `CN(C)C1C(=O)C(C(N)=O)=C(O)C2(O)C(=O)C3=C(O)c4c(O)cccc4C(C)(O)C3C(O)C12` (centres undefined), the IC50 was 1.35 µM.

Take `O=C1c2ccccc2C(=O)c2[nH]c(=O)[nH]c21`: the IC50 was 6.53 µM.

Take `CC[n+]1c(/C=C/N(C)c2ccccc2)n(-c2ccccc2)c2ccc(-c3nc4ccccc4s3)cc21`: the IC50 is 21.8 µM.

For the compound `Cc1cc(C(=O)N/N=C/c2cc(Br)cc([N+](=O)[O-])c2O)c2ccccc2n1`, the IC50 is 93.5 µM.

As for `O=C1NC(=S)S/C1=C\C=C\c1ccc([N+](=O)[O-])o1`, the IC50 was 29.2 µM.

Turning to `O=[N+]([O-])c1ccc(O)c2ncccc12`, the IC50 was 2.7 µM.

Regarding `CCN1/C(=C/C=C/c2sc3ccccc3[n+]2CC)Sc2ccccc21`, the IC50 is 37.2 µM.

In the case of `CN(C)c1ccc(O)c2c1CC1CC3C(N(C)C)C(=O)C(C(N)=O)=C(O)[C@@]3(O)C(=O)C1=C2O` (some centres undefined), the IC50 was 1.54 µM.

For `CN(O)/C=c1/ccc2c(n1)C(=O)C=CC=2`, the IC50 is 54.1 µM.

In the case of `CN(C)CCCNc1cc(C(C)(C)C)nc2c(-c3ccccc3)cnn12`, the IC50 was 83.5 µM.

For the compound `c1ccc2c(NC3=NCCS3)cccc2c1`, the IC50 is 112 µM.

For the compound `CC(C)Oc1ccc(Cc2cnc(N)nc2N)cc1`, the IC50 is 54.2 µM.

As to `O=[N+]([O-])c1cc(CN2CCCC2)c2cccnc2c1O`, the IC50 was 57.1 µM.

As to `NCC12CC3CC(C1)CC(c1ccc(Br)cc1)(C3)C2`, the IC50 was 55.2 µM.

As to `CCCCCCCCCCCCCCCC[n+]1ccc(/C=N/O)cc1`, the IC50 was 30.6 µM.

In the case of `O=C(N/N=C/c1c[nH]c2ccccc12)c1cc(-c2ccc3ccccc3c2)n[nH]1`, the IC50 was 68.6 µM.

With `O=C1C=C(O)c2c(O)cc(O)c(O)c2C1=O`, the IC50 was 69.4 µM.

Turning to `O=C(N/N=C/c1ccc([N+](=O)[O-])o1)c1ccc(O)cc1`, the IC50 was 21 µM.

With `CC1CCC(C(C)C)C(OC(=O)Cn2c(COc3ccccc3)[n+](C)c3ccccc32)C1` (centres undefined), the IC50 was 85.5 µM.

Consider `CCCCCCCCCCOC(=O)Cn1c(COc2ccc(Cl)cc2)[n+](C)c2ccccc21`, for which the IC50 is 26.7 µM.

`O=C(NC(CO)C(O)c1ccc([N+](=O)[O-])cc1)C(Cl)Cl` (centres undefined): the IC50 is 9.17 µM.

Regarding `CCCCCCCCCCOC(=O)Cn1c(COc2ccc(OC)cc2)[n+](C)c2ccccc21`, the IC50 is 36.5 µM and 36.1 µM.

For `O=C(Nc1ccccc1)Nc1ccc(Cl)c([N+](=O)[O-])c1`, the IC50 was 39.2 µM.

Regarding `C[C@H]1c2cccc(O)c2C(O)=C2C(=O)[C@]3(O)C(O)=C(C(N)=O)C(=O)[C@@H](N(C)C)C3[C@@H](O)C21` (some centres undefined), the IC50 was 1.31 µM.

For the compound `CC(=O)N1CCN(c2cc3c(cc2F)c(=O)c(C(=O)O)cn3C2CC2)CC1`, the IC50 was 21.6 µM.

In the case of `Cc1ccc(Nc2nc(NCc3ccco3)c3ccccc3n2)cc1`, the IC50 is 23.6 µM.

On to `NC(N)=N/N=C/c1ccc(OCc2ccc(Cl)cc2)cc1`, for which the IC50 is 56.5 µM.

As to `Cc1nc2c(=O)n(C)c(=O)nc-2n(C)n1`, the IC50 was 0.6 µM.
